From patent US20030206946A1, “Methods for therapy of connective tissue disease” (priority 2002, published 2003)

Tests used:
[1] = system: p16 and p21 in synovial fibroblasts from adjuvant arthritis; experiment: Western blot of p16 and p21 in synovial fibroblasts; assay type: cell-based, rats; conditions: phenylbutyrate 2 mM, trichostatin A 200 nM; 12 h
[2] = system: TNF-α in the connective tissues of connective tissue disease; experiment: TNF-α immunohistochemistry of connective tissues in adjuvant arthritis; assay type: in vivo, Long Evans rats; conditions: treated vs vehicle group
[3] = system: synovial fibroblasts from adjuvant arthritis; experiment: Proliferation of synovial fibroblasts by 3H-thymidine incorporation; assay type: cell-based, rats; conditions: 3H-thymidine present during last 24 hours of culture; relative to control culture
Procedure: (§1) At day 10, synovial samples were obtained from the established adjuvant arthritis rats. The collected synovial tissues were digested with 5 mg/ml collagenase (sigma) and 1.5 mg/ml DNase (sigma), and were passed through a wire mesh to prepare isolated cells. Cells (0.5×10^6) were placed in 10-cm dishes with 10 ml RPMI 1640 medium (Gibco) supplemented with 10% fetal calf serum, 2 mM L-glutamine, 50 U/ml penicillin and […] streptomycin. Cells were detached with trypsin-EDTA solution and passed for subculture when 90% confluency was reached. The synovial cells used were of passage 5. Proliferating synovial fibroblasts from adjuvant arthritis were treated with phenylbutyrate or trichostatin A, and proliferation was determined by incorporation of ^3H-thymidine, which was present during last 24 hours of culture. 4-phenylbutyrate (Merck) dissolved in sterile water with NaOH and adjusted to pH 7.2, or sodium phenylbutyrate (Triple Crown, U.S.A) dissolved in sterile water or trichostatin A (sigma) dissolved in ethanol were used. […] Hyperacetylated histones were detected by use of the antibody that specifically recognizes the hyperacetylated form of histone H3 (upstate biotechnology).

[4] = system: p16 in the synovium of connective tissue disease; experiment: p16 immunohistochemistry of synovium in adjuvant arthritis; assay type: in vivo, Long Evans rats; conditions: treated vs vehicle group
Description: FIGS. 8G-[…] are from lower magnification to higher magnification showing the severe synovial hyperplasia and panus formation in connective tissue disease deteriorating the cartilage and bone of joints (left panel: H&E stain). In contrast, there is no p16 staining in the invasive synovium of the vehicle group when compared to the synovium in the treated group (right panel: immunohistochemistry).

[5] = system: adjuvant arthritis, left hind paw (without CFA); experiment: Adjuvant arthritis (CFA), Delayed Phase, contralateral left hind paw volume; assay type: in vivo, Long Evans rats; conditions: for systematic inhibition effect in delayed phase (left paw), in words: summary of Table 2
Procedure: (§2) A well-ground suspension of killed Mycobacterium tuberculosis (DIFCO, USA; 0.3 mg in 0.1 ml of light mineral oil; Complete Freund's Adjuvant, CFA) was administered into the subplantar region of the right hind paw immediately after first dosing on first day (denoted day 1). Hind paw volume was measured by Plethsmometer (Cat. No. 7150, UGO BASILE, Italy) and Water cell (25 mm diameter, Cat. No. 7157, UGO BASILE, Italy) on day 0 (before CFA treated), 1, 5, 10, and 15 after CFA of right paw (with CFA), and day 0, 14, and 18 of left paw (without CFA); rats were weighed just before first dose and 1 hour after final dose. Right hind paw volume (Acute Phase) was measured 4 hours after CFA treated (denoted as day 1) and day 5, day 10 and day 15 after CFA. The contralateral left hind paw volume (Delayed Phase) was measured at day 14 and day 18. The inflammatory activity in this model was denoted by values calculated during the Acute Phase as well as the Delayed Phase.
(§3) The animal model for connective tissue disease was established according to the report by Winter C A, et al., Arthritis Rheum. 1966, 9:394-404. Groups of 5 Long Evans rats weighing 150±20 g were used. The 10% of phenylbutyrate cream and 1% of trichostatin A ointment at a dose of 200 mg/paw and 10 mg/paw, respectively, were applied topically twice daily for 18 consecutive days. A well-ground suspension of killed Mycobacterium tuberculosis (DIFCO, USA; 0.3 mg in 0.1 ml of light mineral oil; Complete Freund's Adjuvant, CFA) was administered into the subplantar region of the right hind paw immediately after first dosing on first day (denoted day 1). Hind paw volume was measured by Plethsmometer (Cat. No. 7150, UGO BASILE, Italy) and Water cell (25 mm diameter, Cat. No. 7157, UGO BASILE, Italy) on day 0 (before CFA treated), 1, 5, 10, and 15 after CFA of right paw (with CFA), and day 0, 14, and 18 of left paw (without CFA); rats were weighed just before first dose and 1 hour after final dose. Anti-inflammatory activity in this model was denoted by values calculated during the Acute Phase (the right hind paw volume) as well as the Delayed Phase (the contralateral left hind paw volume). For CFA-injected vehicle control rats, animals were also weighed on day 0 and day 18; CFA-injected vehicle control animals generally gain between 20 to 40 g body weight over this time period. A 30% or more reduction in paw volume relative to vehicle treated controls was considered significant.

[6] = system: acetylated histone H3 in synovial fibroblasts from adjuvant arthritis; experiment: Accumulation of acetylated histones in synovial fibroblasts (western blot, immunofluorescence with anti-acetylated H3 antibody); assay type: cell-based, rats; conditions: phenylbutyrate 2 mM, trichostatin A 200 nM; 6 h for immunofluorescence
Procedure: as §1, with “biotechnology). […] The results were expressed as percentage value relative to the control culture (no drug addition). […]” for “biotechnology).”

histone deacetylases = conditions: background statement; cited from earlier work
[7] = system: inflammation of skin, joints and soft tissues in connective tissue disease; experiment: Gross views and histology of paw joints, skin and soft tissues in adjuvant arthritis; assay type: in vivo, Long Evans rats; conditions: topical 10% phenylbutyrate cream or 1% trichostatin A ointment vs vehicle
Procedure: as §3, with “A 30% or more reduction in paw volume relative to vehicle treated controls was considered significant.” left out

[8] = system: adjuvant arthritis, right hind paw (with CFA); experiment: Adjuvant arthritis (CFA), Acute Phase, right hind paw volume; assay type: in vivo, Long Evans rats
Procedure: as §2, §3

[9] = Acute Phase, right hind paw volume, topical twice daily x 18 days or PO x 5, parentheses mark 30% or more

In the case of O=C(O)CCCc1ccccc1 [phenylbutyrate, 4-phenylbutyrate], the “upregulation of p16 and p21, cell cycle inhibitors” value [1] is reported as “induce upregulation of p16 and p21”, the “TNF-α staining in connective tissues” value [2] is reported as “only small amount of TNF-α was stained in the skin” and the “growth inhibition of synovial fibroblasts” value [3] is reported as “dose- and time- dependent growth inhibition”. The “p16 expression in synovium” value [4] was “upregulated”, the “systematic inhibition effect in delayed phase (left paw), in words” value (shortened to “systematic inhibition effect”) [5] was “not significant” and the “accumulation of acetylated histones” value [6] was “induce an accumulation of acetylated histones”. For the same molecule, the “concentration range of histone deacetylase inhibition” value (histone deacetylases) was “millimolar concentrations” and the “suppression of connective tissue disease (swelling, pannus, synovial hyperplasia, lymphocyte infiltration), in words” value [7] was “pannus formation is blocked”.

For CC(/C=C/C(=O)NO)=C\[C@@H](C)C(=O)c1ccc(N(C)C)cc1 [trichostatin A], the “upregulation of p16 and p21, cell cycle inhibitors” value [1] was “induce upregulation of p16 and p21”, the “TNF-α staining in connective tissues” value [2] was “no TNF-α staining in soft tissues” and the “growth inhibition of synovial fibroblasts” value [3] was “dose- and time- dependent growth inhibition”. For the same molecule, the “p16 expression in synovium” value [4] was “upregulates p16 expression”, the “systematic inhibition effect” value [5] was “not significant” and the “accumulation of acetylated histones” value [6] was “induce an accumulation of acetylated histones”. The “concentration range of histone deacetylase inhibition” value (histone deacetylases) was “submicromolar range”.

For C[C@]12CCC(=O)C=C1CC[C@@H]1[C@@H]2[C@@H](O)C[C@@]2(C)[C@H]1CC[C@]2(O)C(=O)CO [Hydrocortisone, hydrocortisone], the “% Inhibition relative to vehicle treated, Day (5-0)” value [8, 9] was “(35) %”, the “% Inhibition relative to vehicle treated, Day (10-0)” value [8, 9] was “(39) %” and the “% Inhibition relative to vehicle treated, Day (15-0)” value [8, 9] was 23%. The “% Inhibition relative to vehicle treated, Day (1-0)” value ([8]; Acute Phase, unilateral ankle joint/right hind paw volume, topical twice daily x 18 days or PO x 5, parentheses mark 30% or more (significant)) was “(35) %”, the “anti-inflammatory effect in Acute Phase, in words” value ([8]; right hind paw, summary of Table 2) was “marked inhibition effect of hydrocortisone is shown on day 1; however, the effect reduces after day 10” and the “% Inhibition relative to vehicle treated, Day (14-0)” value ([5]; Delayed Phase, contralateral ankle joint/left hind paw volume, parentheses mark 30% or more) was “(30) %”. The “% Inhibition relative to vehicle treated, Day (18-14)” value ([5]; Delayed Phase, contralateral left hind paw volume) was 20%, the “% Inhibition relative to vehicle treated, Day (18-0)” value ([5]; Delayed Phase, contralateral left hind paw volume, parentheses mark 30% or more) was 27% and the “systematic inhibition effect” value [5] was “partially shown”.
